Test [1] deals with T1, cloned human δ opioid receptors (Homo sapiens, UniProt P41143).
T1 construct: expressed in transfected cells; host or cells: CHO cells
The test can be described thus: [3H]diprenorphine receptor binding, δ opioid receptor. To be noted: inhibition of [3H]diprenorphine binding; Cheng-Prusoff correction; read-out: affinity (expressed as Ki value), δ opioid receptor. The procedure:
(§1) The potencies of the final compounds found in Examples 1A-9D were determined by testing the ability of a range of concentrations of each compound to inhibit the binding of the non-selective opioid antagonist, [^3H]diprenorphine, to the cloned human μ, ? and δ opioid receptors, expressed in separate cell lines. IC50 values were obtained by nonlinear analysis of the data using GraphPad Prism version 3.00 for Windows (GraphPad Software, San Diego). Ki values were obtained by Cheng-Prusoff corrections of IC50 values.
(§2) The receptor binding method (DeHaven and DeHaven-Hudkins, 1998) was a modification of the method of Raynor et al. (1994). […] The filters were rinsed 4 times with 1 mL of cold 50 mM Tris HCl, pH 7.8 and radioactivity remaining on the filters determined by scintillation spectroscopy. Nonspecific binding was determined by the minimum values of the titration curves and was confirmed by separate assay wells containing 10 μM naloxone. Ki values were determined by Cheng-Prusoff corrections of IC50 values derived from nonlinear regression fits of 12 point titration curves using GraphPad Prism® version 3.00 for Windows (GraphPad Software, San Diego, Calif.).
(§3) To determine the equilibrium dissociation constant for the inhibitors (Ki), radioligand bound (cpm) in the presence of various concentrations of test compounds was measured. […]

Test [2] addresses T1, cloned human δ opioid receptors. The experiment in a line: Receptor-mediated [35S]GTPγS binding, δ opioid receptor. Type of test: biochemical. To be noted: stimulation of [35S]GTPγS binding to membranes containing cloned human δ opioid receptors; read-out: in vitro δ agonist activity EC50. The procedure:
The potency and efficacy of compounds at each of the receptors are assessed by modifications of the methods of Selley, et al., 1997 and Traynor and Nahorski, 1995 using receptor-mediated [S]GTPγS binding in the same membrane preparations used to measure receptor binding. Assays are carried out in 96-well FlashPlates® (Perkin Elmer Life Sciences, Inc, Boston, Mass.). Membranes prepared from CHO cells expressing the appropriate receptor (50-100 μg of protein) are added to assay mixtures containing agonist with or without antagonists, 100 pM [^35S]GTPγS (approx. 100,000 dpm), 3.0 μM GDP, 75 mM NaCl, 15 mM MgCl2, 1.0 mM ethylene glycol-bis(β-aminoethyl ether)-N,N,N′,N′-tetracetic acid, 1.1 mM dithiothreitol, 10 μg/mL leupeptin, 10 μg/mL pepstatin A, 200 μg/mL bacitracin, and 0.5 μg/mL aprotinin in 50 mM Tris-HCl buffer, pH 7.8. After incubation at room temperature for one hour, the plates are sealed, centrifuged at 800×g in a swinging bucket rotor for 5 minutes and bound radioactivity determined with a TopCount microplate scintillation counter (Packard Instrument Co., Meriden, Conn.).
EC50 values for agonists are determined from nonlinear regression fits of 8- or 12-point titration curves to the 4-parameter equation for a sigmoidal dose-response with a slope factor of 1.0 using GraphPad Prism® version 3.00 for Windows (GraphPad Software, San Diego, Calif.).
(Binding of GTPγS marks nucleotide exchange on a G protein.)

The target of test [3] is T2, cloned human κ opioid receptors (Homo sapiens, UniProt P41145).
T2 construct: expressed in transfected cells; host or cells: CHO cells
T2 sequence (P41145 whole entry): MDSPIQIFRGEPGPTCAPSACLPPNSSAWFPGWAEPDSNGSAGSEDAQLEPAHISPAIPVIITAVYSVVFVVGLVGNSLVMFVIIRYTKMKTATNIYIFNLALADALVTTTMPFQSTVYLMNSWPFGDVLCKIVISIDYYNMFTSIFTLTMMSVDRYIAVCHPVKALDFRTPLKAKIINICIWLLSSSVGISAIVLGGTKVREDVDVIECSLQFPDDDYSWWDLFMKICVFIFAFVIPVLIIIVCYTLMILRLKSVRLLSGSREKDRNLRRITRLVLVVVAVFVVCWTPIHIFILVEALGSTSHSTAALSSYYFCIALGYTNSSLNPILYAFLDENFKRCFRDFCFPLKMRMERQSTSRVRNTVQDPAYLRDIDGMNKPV
The experiment in a line: [3H]diprenorphine receptor binding, κ opioid receptor. To be noted: inhibition of [3H]diprenorphine binding; Cheng-Prusoff correction; read-out: affinity (expressed as Ki value), κ opioid receptor. The procedure:
as §1, §2, §3

Test [4] concerns the target T3, cloned human μ opioid receptors (Homo sapiens, UniProt P35372).
T3 construct: expressed in transfected cells; host or cells: CHO cells
The test can be described thus: [3H]diprenorphine receptor binding, μ opioid receptor. Conditions: inhibition of [3H]diprenorphine binding; Cheng-Prusoff correction; read-out: affinity (expressed as Ki value), μ opioid receptor. On the procedure:
as §1, §2, §3

Each structure is given as a SMILES string.

T1 sequence (P41143 whole entry): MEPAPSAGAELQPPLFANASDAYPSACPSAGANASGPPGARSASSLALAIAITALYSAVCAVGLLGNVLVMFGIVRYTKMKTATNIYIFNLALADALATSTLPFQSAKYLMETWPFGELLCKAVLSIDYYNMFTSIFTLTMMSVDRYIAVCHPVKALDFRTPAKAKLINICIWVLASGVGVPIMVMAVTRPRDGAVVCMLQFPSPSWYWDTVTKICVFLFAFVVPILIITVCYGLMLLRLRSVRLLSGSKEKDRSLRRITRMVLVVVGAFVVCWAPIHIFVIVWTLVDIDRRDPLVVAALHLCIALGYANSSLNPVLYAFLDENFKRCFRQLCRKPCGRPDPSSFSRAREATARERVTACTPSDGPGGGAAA
T3 sequence (P35372 whole entry): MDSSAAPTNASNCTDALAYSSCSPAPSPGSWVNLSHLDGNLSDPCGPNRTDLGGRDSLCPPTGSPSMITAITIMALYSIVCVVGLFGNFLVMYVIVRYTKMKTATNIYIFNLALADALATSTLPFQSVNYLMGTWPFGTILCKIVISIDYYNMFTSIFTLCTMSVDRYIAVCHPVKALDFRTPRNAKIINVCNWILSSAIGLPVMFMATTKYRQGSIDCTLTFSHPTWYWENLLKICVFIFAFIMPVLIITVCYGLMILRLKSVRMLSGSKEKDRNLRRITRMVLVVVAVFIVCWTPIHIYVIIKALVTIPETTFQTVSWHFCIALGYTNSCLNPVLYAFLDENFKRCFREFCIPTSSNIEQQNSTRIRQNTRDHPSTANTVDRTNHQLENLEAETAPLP

As to `CCNC(=O)c1ccc2c(c1)C(CCCCC(=O)N(CC)CC)CC1(CCNCC1)C2` (stereo not shown) [Example 9D, 4-[(4-N,N-diethylaminocarbonyl)butyl]-spiro[6-N-ethylcarbonyl-1,2,3,4-tetrahydronaphthalene-2,4′-piperidine]], the inhibitory constant (Ki) – broadly, a dissociation constant, usually derived from enzyme kinetics or from competition with a known ligand – in test [1] was determined as 0.47 nM; in test [3] it was 696 nM; in test [4] it was 632 nM. Further, the EC50 (as a rule, the concentration that produces a half-maximal response) in test [2] is 8.1 nM.

For the origin of these results see patent US7576207B2, “Spirocyclic heterocyclic derivatives and methods of their use” (Adolor Corporation, priority 2006, dated 2009).
